Assay results published in ChEMBL document CHEMBL5223120 (Bioorg Med Chem Lett, 2022).

Tests used:
Assay type in all cases: ADME, organism-based
Details in all cases: in vivo
[1] = Cmax in mouse at 10 mg/kg, po by WinNonlin non-compartmental analysis; set-up: dose 10 mg/kg, route po
[2] = Oral bioavailability in mouse at 10 mg/kg by WinNonlin non-compartmental analysis
[3] = AUC in mouse at 10 mg/kg, po by WinNonlin non-compartmental analysis; set-up: dose 10 mg/kg, route po

Q: Which results are given for `CC(C)c1cnc(-c2cc(Cl)ccc2F)cc1Nc1ccncc1C(=O)N[C@@H](C)CO`?
A: Cmax [1]: 1570 nM; F ([2]; po, 10 mg/kg): 88%; AUC [3]: 5.25 µM·h

Q: For `CC(C)c1cnc(-c2cc(Cl)ccc2F)cc1Nc1ccncc1C(=O)NC[C@H](C)O`, which Cmax [1] is on record?
A: 1880 nM

Q: What about the bioavailability [2] of the same compound?
A: 33%

Q: What about the AUC ([3]; read-out: AUC) of the same compound?
A: 2.54 µM·h

Q: What does the source list for `CC(C)c1cnc(-c2cc(Cl)ccc2F)cc1Nc1ccncc1C(=O)NC(CO)CO` [PF-06952229]?
A: Cmax [1]: 7070 nM; bioavailability [2]: 87%; AUC ([3]; read-out: AUC): 16.2 µM·h

Q: With `CC(C)c1cnc(-c2cc(Cl)ccc2F)cc1Nc1ccncc1C(=O)NCCN` as the compound, how does the Cmax [1] read?
A: 200 nM

Q: What about the bioavailability [2] of the same compound?
A: 16%

Q: What about the AUC ([3]; read-out: AUC) of the same compound?
A: 0.93 µM·h

Q: What does the source list for `CC(C)c1cnc(-c2cc(Cl)ccc2F)cc1Nc1ccncc1C(=O)NCC(N)=O`?
A: Cmax [1]: 990 nM; bioavailability [2]: 38%; AUC ([3]; read-out: AUC): 1.47 µM·h
